Measured values: patent US20220054513A1, “COMBINATION COMPOSITIONS COMPRISING A BETA-LACTAMASE INHIBITOR” (VenatoRx Pharmaceuticals, Inc., priority 2018, published 2022)
Where two headings read alike, the source gives them in different places.

Experiments:
[1] = test system: carbapenem resistant Enterobacteriaceae (CRE); experiment: MIC of cefiderocol with Compound 1 vs approved BL/BLI combinations, 120 CRE isolates; settings: Klebsiella pneumoniae, IDM
Procedure: A panel of 30 strains of characterized Enterobacteriaceae isolates produce Ambler class A, B, C, and D β-lactamase were used. […] IDM was prepared by adding 100 g of chelex (a chelating agent) to 1 L of sterile CAMBH and stirring for 2 hours. The chelex treated media was then filtered using a 0.2 μm filter and divalent Ca, Mg, and Zn are added back at relevant concentrations. The pH was adjusted to 7.2 using HCl and the media was filtered again to ensure sterility. This created a medium that was devoid of iron but retains appropriate concentration of other cations and was necessary for evaluating the activity of cefiderocol originating from its uptake by bacterial iron transporters. Bacteria strains were grown for 3-5 hours in CAMHB and IDM. Cefiderocol was added either to a microtiter plate in 2-fold serial dilutions in CAMHB and in parallel in IDM. […] Once the test articles were added the plates were inoculated according to CLSI broth microdilution method.
The challenge set of organisms consisted of a variety of Enterobacteriaceae species expressing IMP (n=30), NDM (30), VIM (15), KPC (n=30), and AmpC (n=15).

[2] = test system: β-lactamase expressing Enterobacteriaceae; experiment: broth microdilution MIC of cefiderocol +/- Compound 1, panel of 30 Enterobacteriaceae strains (MIC50/MIC90); format: cell-based
MDR-Acinetobacter = experiment: broth microdilution MIC of cefiderocol +/- Compound 1 in IDM, panel of 40 MDR Acinetobacter; format: cell-based, A. baumannii; settings: for MIC: read-out: Minimum inhibitory concentration (MIC)
[3] = Acinetobacter baumannii, panel of 40 MDR Acinetobacter, IDM

CC(C)(O/N=C(\C(=O)N[C@@H]1C(=O)N2C(C(=O)[O-])=C(C[N+]3(CCNC(=O)c4ccc(O)c(O)c4Cl)CCCC3)CS[C@H]12)c1csc(N)n1)C(=O)O [FDC, cefiderocol]
MIC ([1]; Klebsiella pneumoniae 1212290 (NDM-6)): 4 µg/mL | MIC ([1]; Klebsiella pneumoniae 1212347 (NDM-6)): 4 µg/mL | MIC ([1]; Klebsiella pneumoniae 1212352 (NDM-6)): 1 µg/mL | MIC ([1]; Klebsiella pneumoniae 1251598 (VIM-26)): 0.5 µg/mL | MIC ([1]; Klebsiella pneumoniae 1251599 (VIM-26)): 0.5 µg/mL | MIC ([1]; Klebsiella pneumoniae 1251600 (VIM-26)): 0.25 µg/mL | MIC ([1]; Klebsiella pneumoniae 1251604 (VIM-26)): 0.25 µg/mL | MIC ([1]; Klebsiella pneumoniae 1277372 (NDM-7)): 2 µg/mL | MIC ([1]; Klebsiella pneumoniae 1277416 (IMP-26)): 0.5 µg/mL | MIC ([1]; Klebsiella pneumoniae 1286102 (NDM-7)): 4 µg/mL | MIC ([1]; Klebsiella pneumoniae 1286206 (NDM-7)): 4 µg/mL | MIC ([1]; Klebsiella pneumoniae 1369220 (NDM-6)): 8 µg/mL | MIC ([1]; Klebsiella pneumoniae 1369251 (NDM-6)): 16 µg/mL | MIC ([1]; Klebsiella pneumoniae 1369306 (NDM-6)): 8 µg/mL | MIC ([1]; Klebsiella pneumoniae 1371650 (NDM-6)): 4 µg/mL | MIC ([1]; Klebsiella pneumoniae 1371730 (NDM-6)): 1 µg/mL | MIC ([1]; Klebsiella pneumoniae 1379123 (NDM-4)): 4 µg/mL | MIC ([1]; Klebsiella pneumoniae 1385577 (NDM-4)): 8 µg/mL | MIC ([1]; Klebsiella pneumoniae 1385586 (NDM-4)): 4 µg/mL | MIC ([1]; Klebsiella pneumoniae 1385622 (NDM-4)): 2 µg/mL | MIC ([1]; Klebsiella pneumoniae 1420892 (IMP-4)): 2 µg/mL | MIC ([1]; Klebsiella pneumoniae 1455463 (NDM-4)): 8 µg/mL | MIC ([1]; Klebsiella pneumoniae 1455545 (NDM-4)): 0.5 µg/mL | MIC ([1]; Klebsiella pneumoniae 1459396 (NDM-7)): 1 µg/mL | MIC ([1]; Klebsiella pneumoniae 1459398 (NDM-7)): 8 µg/mL | MIC ([1]; Klebsiella pneumoniae 1591688 (IMP-4)): 1 µg/mL | MIC ([1]; Klebsiella pneumoniae 1591702 (IMP-4)): 1 µg/mL | MIC ([1]; Klebsiella pneumoniae 1607267 (IMP-4)): 4 µg/mL | MIC ([1]; Klebsiella pneumoniae 1610707 (VIM-24)): 0.25 µg/mL | MIC ([1]; Klebsiella pneumoniae 1621162 (VIM-12)): 0.5 µg/mL | MIC ([1]; Klebsiella pneumoniae CDC-0034 (IMP-4, TEM-1B, SHV-11)): 0.25 µg/mL | MIC ([1]; Klebsiella pneumoniae CDC-0080 (IMP-4, TEM-1B, OKP-B-2, OXA-1, SFO-1)): 0.5 µg/mL | MIC ([1]; Klebsiella pneumoniae IHMA 469384 (IMP-26, SHV-12)): 0.059 µg/mL | MIC ([1]; Klebsiella pneumoniae IHMA 511121 (IMP-26)): 1 µg/mL | MIC ([1]; Klebsiella pneumoniae IHMA 511128 (IMP-26)): 2 µg/mL | MIC ([1]; Klebsiella pneumoniae IHMA 511163 (IMP-26)): 4 µg/mL | MIC ([1]; Klebsiella pneumoniae IHMA 600482 (CTX-M-15, IMP-26)): 2 µg/mL | MIC ([1]; Klebsiella pneumoniae SI-128 (IMP-5)): 2 µg/mL | MIC50 ([2]; IDM): 0.5 µg/mL | MIC90 ([2]; IDM): 4 µg/mL | MIC50 ([2]; MHBII): 4 µg/mL | MIC90 ([2]; MHBII): 32 µg/mL | Minimum inhibitory concentration (MIC) (MDR-Acinetobacter; A. baumannii 157076, IDM): 0.125 µg/mL | Minimum inhibitory concentration (MIC) (MDR-Acinetobacter; A. baumannii 157078, IDM): 0.125 µg/mL | Minimum inhibitory concentration (MIC) (MDR-Acinetobacter; A. baumannii 161761, IDM): 0.125 µg/mL | Minimum inhibitory concentration (MIC) (MDR-Acinetobacter; A. baumannii 163264, IDM): 0.125 µg/mL | Minimum inhibitory concentration (MIC) (MDR-Acinetobacter; A. baumannii 164890, IDM): 0.125 µg/mL | Minimum inhibitory concentration (MIC) (MDR-Acinetobacter; A. baumannii 164891, IDM): 0.125 µg/mL | Minimum inhibitory concentration (MIC) (MDR-Acinetobacter; A. baumannii 165039, IDM): 0.125 µg/mL | Minimum inhibitory concentration (MIC) (MDR-Acinetobacter; A. baumannii CDC-0056, IDM): 0.125 µg/mL | MIC (MDR-Acinetobacter; Acinetobacter baumannii, A. baumannii 0045, IDM): 0.5 µg/mL | MIC (MDR-Acinetobacter; Acinetobacter baumannii, A. baumannii 157070, IDM): 0.25 µg/mL | MIC (MDR-Acinetobacter; Acinetobacter baumannii, A. baumannii 157071, IDM): 0.03 µg/mL | MIC (MDR-Acinetobacter; Acinetobacter baumannii, A. baumannii 157072, IDM): 0.25 µg/mL | MIC (MDR-Acinetobacter; Acinetobacter baumannii, A. baumannii 157074, IDM): 0.06 µg/mL | MIC (MDR-Acinetobacter; Acinetobacter baumannii, A. baumannii 157079, IDM): 0.5 µg/mL | MIC (MDR-Acinetobacter; Acinetobacter baumannii, A. baumannii 157865, IDM): 4 µg/mL | MIC (MDR-Acinetobacter; Acinetobacter baumannii, A. baumannii 161754, IDM): 0.25 µg/mL | MIC (MDR-Acinetobacter; Acinetobacter baumannii, A. baumannii 161763, IDM): 0.5 µg/mL | MIC (MDR-Acinetobacter; Acinetobacter baumannii, A. baumannii 163169, IDM): 0.03 µg/mL | MIC (MDR-Acinetobacter; Acinetobacter baumannii, A. baumannii 164899, IDM): 0.25 µg/mL | MIC (MDR-Acinetobacter; Acinetobacter baumannii, A. baumannii CDC-0033, IDM): 0.5 µg/mL | MIC (MDR-Acinetobacter; Acinetobacter baumannii, A. baumannii CDC-0035, IDM): 0.25 µg/mL | MIC (MDR-Acinetobacter; Acinetobacter baumannii, A. baumannii CDC-0036, IDM): 1 µg/mL | MIC (MDR-Acinetobacter; Acinetobacter baumannii, A. baumannii CDC-0037, IDM): 4 µg/mL | MIC (MDR-Acinetobacter; Acinetobacter baumannii, A. baumannii CDC-0052, IDM): 8 µg/mL | MIC (MDR-Acinetobacter; Acinetobacter baumannii, A. baumannii CDC-0063, IDM): 0.5 µg/mL | MIC (MDR-Acinetobacter; Acinetobacter baumannii, A. baumannii CDC-0070, IDM): 0.25 µg/mL | MIC (MDR-Acinetobacter; Acinetobacter baumannii, A. baumannii CDC-0078, IDM): 0.5 µg/mL | MIC (MDR-Acinetobacter; Acinetobacter baumannii, A. baumannii CDC-0083, IDM): 1 µg/mL | MIC (MDR-Acinetobacter; Acinetobacter baumannii, A. baumannii CDC-0088, IDM): 8.1 µg/mL | MIC (MDR-Acinetobacter; Acinetobacter baumannii, A. baumannii CDC-0101, IDM): 0.06 µg/mL | MIC (MDR-Acinetobacter; Acinetobacter baumannii, A. baumannii CDC-0102, IDM): 1 µg/mL | MIC (MDR-Acinetobacter; Acinetobacter baumannii, A. baumannii GM235, IDM): 1 µg/mL | MIC (MDR-Acinetobacter; Acinetobacter baumannii, A. baumannii GM236, IDM): 0.03 µg/mL | MIC (MDR-Acinetobacter; Acinetobacter baumannii, A. baumannii GM237, IDM): 0.25 µg/mL | MIC (MDR-Acinetobacter; Acinetobacter baumannii, A. baumannii GM238, IDM): 0.25 µg/mL | MIC (MDR-Acinetobacter; Acinetobacter baumannii, A. baumannii GM239, IDM): 2 µg/mL | MIC (MDR-Acinetobacter; Acinetobacter baumannii, A. baumannii SI-141, IDM): 4 µg/mL | MIC (MDR-Acinetobacter; Acinetobacter baumannii, ATCC17978, A. baumannii ATCC 17978, IDM): 0.25 µg/mL | MIC (MDR-Acinetobacter; Acinetobacter baumannii, NCTC13301, A. baumannii NCTC 13301, IDM): 1 µg/mL | MIC (MDR-Acinetobacter; Acinetobacter baumannii): 0.125 µg/mL | MIC50 (MDR-Acinetobacter; [3]): 0.25 µg/mL | MIC90 (MDR-Acinetobacter; [3]): 4 µg/mL
